Where a SMILES comes first, the peptide text is derived from it.
What was measured:
P815 target cells = experiment: Cytotoxic T lymphocytes (CTL) assay, 51Cr release, after 5 days mixed culture with drug; format: cell-based, C57BL/6 mice
Description: 1. Cytotoxic T Lymphocytes (CTL) Mixed Lymphocyte Reaction (MLR) and Mitogenic Response Assays
The protocols used are described in Hudson L., Haay F., Pratical immunology, 3rd edition, Blackwell, Scientific publications, Oxford 1989, p. 158-162, and p.447.
Lymphocytes were isolated from C57BL/6 mice and DBA/2 mice in accordance to techniques well known in the art. Cell concentration was adjusted to 10×10^6 cell/ml for each assay. The cells isolated from DBA/2 mice were irradiated with 3000 Rads.
In a 6 well plate, each well was set up with:
The cells were incubated for five days at 37° C. in 5% CO2, after which CTL and MLR assays were performed.
a) Cytotoxic T Lymphocytes (CTL)
P815 target cells were labelled with Cr^51 (0.1 mCi). After labelling, the cells were washed three times and resuspended to a concentration of 5×10^4 cells/ml in media. p T cells were then counted and diluted to obtain a concentration of 2.5×10^6 cells/ml, and then further diluted to obtain the following effector:target ratios:
100 μl of target cells+100 μl of CTLs were incubated for 4 hours. In parallel wells, 100 μl of target cells+100 μl of media were incubated for spntaneous release. After incubation, cells were centrifuged and 100 μl of supernatant was then counted using a gamma counter.
Results are expressed as % specific ^51 Cr release= [formula] where ER=experimental release, SR=spontaneous releaase, and
0 represents less than 20%, + represents 20-40%, ++ represents 40-60%, +++ represent 60-80%, and ++++ represents 80% and over.

[1] = tested on: blood cell subsets (cell surface antigens); experiment: In vivo/ex vivo immunophenotyping in the blood, mice treated 4 consecutive days, blood taken on day 5; design: species or system C57BL/6 mice
Experimental: C57BL.backslash.6 mice are treated with 0, 50, 100, 200, and 300 mg/kg of drug (in saline) for 4 consecutive days. Blood is taken by cardiac puncture on day 5, and the lymphocytes are isolated from spleen in the following manner:
1. Immunophenotyping (blood and spleen)
Cell immunophenotyping is performed on blood and spleen. The following cell surface antigens are analyzed:
CD4 (T helper/inducer, binds class II-restricted T cells);
CD8 (cytotoxic T cells, CTL adhesion);
MAC-1 (monocyte/macrophage);
NK (natural killer cells);
CD45 (all leukocytes, protein tyrosine phosphatase).

[2] = Stability in Human Whole Blood at 37° C., HPLC; format: in vitro ADME; design: half-life: dose or concentration left out as unconfirmed; settings: for HPLC AREA: human whole blood 37° C.
Experimental: The procedures are the same as example 5 with the exceptions that human whole blood was substituted for rat whole blood, and that in Step 2, (blood incubation) aliquotes were taken at the following times: […]

NCCCC[C@H](N)C(=O)N[C@@H](CC(N)=O)C(=O)N1CCC[C@H]1C(=O)N[C@@H](Cc1ccc(O)cc1)C(=O)O [PEPTIDE #1, H-Lys-Asn-Pro-Tyr-OH] (H-KNPY-OH)
CTL, % augmentation compared to IL-2 (IL-2 is 100%) (P815 target cells; 10^-7 M): ++ (++ represents 40-60%) | stimulation of CTL in vitro (in words) (P815 target cells; summary of Table 1): stimulates CTL's | B cell subset, relative percentage ([1]; 50 mg/kg): 23.57 | CD4+ CD8+ cell subset, relative percentage ([1]; 50 mg/kg): 3.65 | CD4+ CD8- cell subset, relative percentage ([1]; 50 mg/kg): 27.15 | CD4+ CD11+ cell subset, relative percentage ([1]; 50 mg/kg): 0.53 | CD4+ CD11- cell subset, relative percentage ([1]; 50 mg/kg): 34.10 | CD4+ CD45+ cell subset, relative percentage ([1]; 50 mg/kg): 26.95 | CD4+ CD45- cell subset, relative percentage ([1]; 50 mg/kg): 3.80 | CD4- CD8+ cell subset, relative percentage ([1]; 50 mg/kg): 11.20 | CD4- CD8- cell subset, relative percentage ([1]; 50 mg/kg): 58.05 | CD4- CD11+ cell subset, relative percentage ([1]; 50 mg/kg): 7.67 | CD4- CD11- cell subset, relative percentage ([1]; 50 mg/kg): 57/73 | CD4- CD45+ cell subset, relative percentage ([1]; 50 mg/kg): 65.30 | CD4- CD45- cell subset, relative percentage ([1]; 50 mg/kg): 3.90 | CD8+ CD45+ cell subset, relative percentage ([1]; 50 mg/kg): 13.70 | CD8+ CD45- cell subset, relative percentage ([1]; 50 mg/kg): 0.55 | CD8- CD45+ cell subset, relative percentage ([1]; 50 mg/kg): 76.15 | CD8- CD45- cell subset, relative percentage ([1]; 50 mg/kg): 9.60 | NK+ CD3+ cell subset, relative percentage ([1]; 50 mg/kg): 7.83 | NK+ CD3- cell subset, relative percentage ([1]; 50 mg/kg): 10.47 | NK- CD3+ cell subset, relative percentage ([1]; 50 mg/kg): 41.23 | NK- CD3- cell subset, relative percentage ([1]; 50 mg/kg): 40.53 | Non B cell subset, relative percentage ([1]; 50 mg/kg): 76.40 | B cell subset, relative percentage ([1]; 100 mg/kg): 19.23 | CD4+ CD8+ cell subset, relative percentage ([1]; 100 mg/kg): 27.20 | CD4+ CD8- cell subset, relative percentage ([1]; 100 mg/kg): 28.55 | CD4+ CD11+ cell subset, relative percentage ([1]; 100 mg/kg): 0.23 | CD4+ CD11- cell subset, relative percentage ([1]; 100 mg/kg): 41.67 | CD4+ CD45+ cell subset, relative percentage ([1]; 100 mg/kg): 46.75 | CD4+ CD45- cell subset, relative percentage ([1]; 100 mg/kg): 8.90 | CD4- CD8+ cell subset, relative percentage ([1]; 100 mg/kg): 11.50 | CD4- CD8- cell subset, relative percentage ([1]; 100 mg/kg): 32.85 | CD4- CD11+ cell subset, relative percentage ([1]; 100 mg/kg): 3.00 | CD4- CD11- cell subset, relative percentage ([1]; 100 mg/kg): 55.13 | CD4- CD45+ cell subset, relative percentage ([1]; 100 mg/kg): 37.30 | CD4- CD45- cell subset, relative percentage ([1]; 100 mg/kg): 7.00 | CD8+ CD45+ cell subset, relative percentage ([1]; 100 mg/kg): 31.95 | CD8+ CD45- cell subset, relative percentage ([1]; 100 mg/kg): 6.20 | CD8- CD45+ cell subset, relative percentage ([1]; 100 mg/kg): 47.55 | CD8- CD45- cell subset, relative percentage ([1]; 100 mg/kg): 14.35 | NK+ CD3+ cell subset, relative percentage ([1]; 100 mg/kg): 2.80 | NK+ CD3- cell subset, relative percentage ([1]; 100 mg/kg): 6.50 | NK- CD3+ cell subset, relative percentage ([1]; 100 mg/kg): 37.57 | NK- CD3- cell subset, relative percentage ([1]; 100 mg/kg): 53.13 | Non B cell subset, relative percentage ([1]; 100 mg/kg): 80.77 | B cell subset, relative percentage ([1]; 200 mg/kg): 20.10 | CD4+ CD8+ cell subset, relative percentage ([1]; 200 mg/kg): 16.11 | CD4+ CD8- cell subset, relative percentage ([1]; 200 mg/kg): 24.11 | CD4+ CD11+ cell subset, relative percentage ([1]; 200 mg/kg): 0.50 | CD4+ CD11- cell subset, relative percentage ([1]; 200 mg/kg): 39.73 | CD4+ CD45+ cell subset, relative percentage ([1]; 200 mg/kg): 33.01 | CD4+ CD45- cell subset, relative percentage ([1]; 200 mg/kg): 6.22 | CD4- CD8+ cell subset, relative percentage ([1]; 200 mg/kg): 8.57 | CD4- CD8- cell subset, relative percentage ([1]; 200 mg/kg): 37.41 | CD4- CD11+ cell subset, relative percentage ([1]; 200 mg/kg): 5.50 | CD4- CD11- cell subset, relative percentage ([1]; 200 mg/kg): 54.30 | CD4- CD45+ cell subset, relative percentage ([1]; 200 mg/kg): 40.63 | CD4- CD45- cell subset, relative percentage ([1]; 200 mg/kg): 6.74 | CD8+ CD45+ cell subset, relative percentage ([1]; 200 mg/kg): 20.68 | CD8+ CD45- cell subset, relative percentage ([1]; 200 mg/kg): 4.13 | CD8- CD45+ cell subset, relative percentage ([1]; 200 mg/kg): 49.80 | CD8- CD45- cell subset, relative percentage ([1]; 200 mg/kg): 10.39 | NK+ CD3+ cell subset, relative percentage ([1]; 200 mg/kg): 4.57 | NK+ CD3- cell subset, relative percentage ([1]; 200 mg/kg): 8.70 | NK- CD3+ cell subset, relative percentage ([1]; 200 mg/kg): 31.73 | NK- CD3- cell subset, relative percentage ([1]; 200 mg/kg): 55.07 | Non B cell subset, relative percentage ([1]; 200 mg/kg): 79.90 | B cell subset, relative percentage ([1]; 300 mg/kg): 33.67 | CD4+ CD8+ cell subset, relative percentage ([1]; 300 mg/kg): 2.37 | CD4+ CD8- cell subset, relative percentage ([1]; 300 mg/kg): 31.07 | CD4+ CD11+ cell subset, relative percentage ([1]; 300 mg/kg): 0.37 | CD4+ CD11- cell subset, relative percentage ([1]; 300 mg/kg): 29.53 | CD4+ CD45+ cell subset, relative percentage ([1]; 300 mg/kg): 30.67 | CD4+ CD45- cell subset, relative percentage ([1]; 300 mg/kg): 2.77 | CD4- CD8+ cell subset, relative percentage ([1]; 300 mg/kg): 16.67 | CD4- CD8- cell subset, relative percentage ([1]; 300 mg/kg): 49.90 | CD4- CD11+ cell subset, relative percentage ([1]; 300 mg/kg): 5.07 | CD4- CD11- cell subset, relative percentage ([1]; 300 mg/kg): 65.03 | CD4- CD45+ cell subset, relative percentage ([1]; 300 mg/kg): 62.10 | CD4- CD45- cell subset, relative percentage ([1]; 300 mg/kg): 4.47 | CD8+ CD45+ cell subset, relative percentage ([1]; 300 mg/kg): 18.10 | CD8- CD45+ cell subset, relative percentage ([1]; 300 mg/kg): 73.03 | CD8- CD45- cell subset, relative percentage ([1]; 300 mg/kg): 8.83 | NK+ CD3+ cell subset, relative percentage ([1]; 300 mg/kg): 9.97 | NK+ CD3- cell subset, relative percentage ([1]; 300 mg/kg): 11.87 | NK- CD3+ cell subset, relative percentage ([1]; 300 mg/kg): 42.43 | NK- CD3- cell subset, relative percentage ([1]; 300 mg/kg): 35.77 | Non B cell subset, relative percentage ([1]; 300 mg/kg): 66.30 | change of the relative percentage of B cell (in words) ([1]; 300 mg/kg): significant increase | HPLC AREA ([2]; 0 min): 887657 | HPLC AREA ([2]; 15 min): 354842 | HPLC AREA ([2]; 30 min): 127725 | HPLC AREA ([2]; 45 min): 0 | half-life ([2]; human, human whole blood, 37° C.): ~20 min
